Assay results from patent US10882882B2, “Post fermented tea-derived kaempferol-based compound” (AMOREPACIFIC CORPORATION, priority 2016, dated 2021).

Target: T1, beta amyloid (Aβ1-42) (Homo sapiens, UniProt P05067)
T1 construct: beta amyloid (Aβ1-42, AnaSpec Inc, USA); purchased AnaSpec Inc, USA
Test: Inhibition of beta amyloid aggregation, fluorescence analysis (ThioflavinT assay)
Type: biochemical
Conditions: for Increased RFU (% of Pos. Cont.): Pos. Cont. (beta amyloid only) = 100; for inhibition of beta amyloid aggregation as compared with the positive control group: positive control (only beta amyloid, no compound) taken as 100%
Protocol: The effect of kaempferol3-O-[2-O″-(E)-p-coumaroyl][beta-D-glucopyranosyl-(1→3)-O-alpha-L-rhamnopyranosyl-(1→6)-O-beta-D-glucopyranoside] on inhibition of beta amyloid aggregation was confirmed by the fluorescence analysis (ThioflavinT assay). Specifically, beta amyloid (Aβ1-42, AnaSpec Inc, USA) was obtained and used at a concentration of 0.1 mg/ml and stored at −80° C. before use. Morin (20 μM), phenol red (20 μM), and kaempferol3-O-[2-O″-(E)-p-coumaroyl][beta-D-glucopyranosyl-(1→3)-O-alpha-L-rhamnopyranosyl-(1→6)-O-beta-D-glucopyranoside] (1 mg/ml) were respectively diluted with DMSO so as to be adjusted to the concentrations. In order to specify the degree of inhibition of Aβ1-42 aggregation, each of the compounds prepared at the above concentrations was diluted with 50 μL of 0.01 M sodium phosphate buffer solution to have a concentration of 10 μM, then 40 μL of 0.1 mg/ml of Aβ1-42 was added thereto, and then 10 μl of 2 mM thioflavinT was added thereto, and fluorescence was measured using a fluorescence spectrometer (RF-5300PC, SHIMADZU CORPORATION, Japan) at 37° C. for 150 minutes at intervals of 5 minutes. In the above table, “RFU” denotes the relative fluorescence unit, and “Increased RFU” denotes the amount of aggregated beta amyloid, and “Increased RFU (% of Pos.Cont.)” denotes the percentage value of the amount of aggregated beta amyloid with respect to that of the positive control group. “Novel substance 33” denotes kaempferol3-O-[2-O″-(E)-p-coumaroyl][beta-D-glucopyranosyl-(1→3)-O-alpha-L-rhamnopyranosyl-(1→6)-O-beta-D-glucopyranoside].

[1] = compound 10 μM, Aβ1-42 0.1 mg/ml, 37° C., 150 minutes

T1 sequence (P05067 672-713 limits assumed): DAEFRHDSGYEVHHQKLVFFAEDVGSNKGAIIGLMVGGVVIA

| Structure (SMILES) | Increased RFU (% of Pos. Cont.) [1] | Increased RFU (amount of aggregated beta amyloid) (compound 10 μM, Aβ1-42 0.1 mg/ml, thioflavinT, 37° C., 150 minutes) | inhibition of beta amyloid aggregation as compared with the positive control group |
| --- | --- | --- | --- |
| O=c1c(O)c(-c2ccc(O)cc2O)oc2cc(O)cc(O)c12 [Morin] | 78.6% | 11471 RFU | 21.4% |
| O=S1(=O)OC(c2ccc(O)cc2)(c2ccc(O)cc2)c2ccccc21 [Phenol Red] | 93.6% | – | 6.4% |
